The source of these data is paper PMC9537510, “Reduction of stress responses in honey bees by synthetic ligands targeting an allatostatin receptor” (Scientific Reports, 2022).

Type in all cases: cell-based
For assay [1], the target named is T1, allatostatin A receptor (ASTA-R) (Apis mellifera, UniProt A0A7M7ILT1).
T1 construct: gene LOC413582; receptor expressed in transfected HEK293T cells (NCBI: XP_006560262.1 used for the model)
T1 sequence (A0A7M7ILT1 1-361): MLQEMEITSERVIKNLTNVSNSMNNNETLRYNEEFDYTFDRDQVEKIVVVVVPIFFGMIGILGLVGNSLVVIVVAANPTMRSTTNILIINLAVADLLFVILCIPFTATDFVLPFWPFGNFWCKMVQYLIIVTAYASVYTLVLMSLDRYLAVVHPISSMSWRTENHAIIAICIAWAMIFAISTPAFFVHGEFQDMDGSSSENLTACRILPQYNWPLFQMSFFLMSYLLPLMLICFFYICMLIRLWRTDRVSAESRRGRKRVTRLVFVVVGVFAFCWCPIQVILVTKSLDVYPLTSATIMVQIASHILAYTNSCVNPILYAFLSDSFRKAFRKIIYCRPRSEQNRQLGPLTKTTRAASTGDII
The assay can be described thus: reversal of ASTA inhibition of forskolin-induced cAMP in ASTA-R-expressing cells; also weak competition binding (IC50 > […]).

Assay [2] concerns the target T1, allatostatin A receptor (ASTA-R). Nature of the assay: competition binding with fluorescence-labeled ASTA on ASTA-R-transfected HEK cells.
For assay [3] the target is unchanged. The assay can be described thus: competition binding with fluorescence-labeled ASTA on ASTA-R-transfected HEK cells; also cAMP antagonism.

As to `Cc1ccc(-n2cncn2)c(NC(=O)CSCCCc2ccccc2)c1` [B6, N-(5-methyl-2-(1H-1,2,4-triazol-1-yl)phenyl)-2-(phenypropylthio)acetamide], the “reversal of ASTA inhibition of forskolin-induced cAMP in ASTA-R-expressing cells” value in assay [1] is “both B5 and B6 act as ASTA antagonists by interacting with ASTA-R”.
With `O=C(CSCCCc1ccccc1)Nc1cc(C(F)(F)F)ccc1-n1cncn1` [B3, N-(2-(1H-1,2,4-triazol-1-yl)-5-(trifluoromethyl)phenyl)-2-((3-phenylpropyl)thio)acetamide], the concentration for half-maximal inhibition (IC50) – broadly, the midpoint of a concentration-inhibition curve – in assay [2] was more than 10 µM.
With `Cc1ccc(-n2cncn2)c(NC(=O)CSCCc2ccccc2)c1` [B5, N-(5-methyl-2-(1H-1,2,4-triazol-1-yl)phenyl)-2-(phenethylthio)acetamide], the IC50 in assay [3] is more than 10 µM.
